The source made the active and inactive calls.
Legend:
[1] = M. tuberculosis H37Rv growth inhibitors, H37Rv strain (AID 1626); type: functional
[2] = HEK-293T cell viability reduction – luminescence, B-cell screen hits, cytotoxicity control for BCR NF-kB inhibitor project, dose response (AID 489021); type: functional, cell-based;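 note: HEK-293T cells carrying an NF-kB luciferase reporter; cells exposed to compound for about 14 hours before viability readout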
[3] = target: Glyceraldehyde-3-phosphate dehydrogenase (Homo sapiens, UniProt P04406)
Chain of Glyceraldehyde-3-phosphate dehydrogenase (P04406 whole entry): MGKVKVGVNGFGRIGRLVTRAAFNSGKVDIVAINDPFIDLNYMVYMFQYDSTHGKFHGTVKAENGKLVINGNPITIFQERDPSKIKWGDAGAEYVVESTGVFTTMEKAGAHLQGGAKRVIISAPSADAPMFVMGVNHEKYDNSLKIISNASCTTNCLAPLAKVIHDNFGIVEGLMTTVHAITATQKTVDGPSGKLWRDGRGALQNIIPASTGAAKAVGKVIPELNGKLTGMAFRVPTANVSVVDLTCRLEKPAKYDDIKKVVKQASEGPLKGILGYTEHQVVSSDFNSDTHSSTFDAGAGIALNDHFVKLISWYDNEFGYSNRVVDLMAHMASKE

Bcl-2-related protein A1 [4] = target: T1, Bcl-2-related protein A1 (Mus musculus, UniProt Q07440); experiment: small-molecule antagonists of Bfl-1/BH3 interaction – biochemical, TR-FRET, mouse Bfl-1, confirmation (AID 621);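 note: TR-FRET binding of GST-Bfl-1 to FITC-labelled Bid peptide via terbium antibody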
T1 sequence (Q07440 whole entry): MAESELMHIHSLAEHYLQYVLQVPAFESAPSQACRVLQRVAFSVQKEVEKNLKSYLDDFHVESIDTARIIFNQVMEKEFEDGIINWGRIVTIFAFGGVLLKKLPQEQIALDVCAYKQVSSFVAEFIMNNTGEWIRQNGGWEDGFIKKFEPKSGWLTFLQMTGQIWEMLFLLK

Bcl-2-related protein A1 [5] = target: T1, Bcl-2-related protein A1; experiment: Bfl-1 binding inhibitors, SAR follow-up, biochemical, fluorescence polarization (AID 1070)
Streptococcus = experiment: GAS UMAA2166 growth inhibition – luminescence, BacTiterGlo, counter-screen for streptokinase expression inhibitor project, dose response (AID 1915); type: functional, organism-based;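 note: potency for reduction of bacterial viability or growth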
[6] = target: T2, Calpain-2 catalytic subunit (Sus scrofa, UniProt P43367); experiment: m-calpain protease blockers, concentration series – biochemical, fluorogenic peptide substrate, dose response (AID 1420); type: functional
T2 sequence (P43367 whole entry): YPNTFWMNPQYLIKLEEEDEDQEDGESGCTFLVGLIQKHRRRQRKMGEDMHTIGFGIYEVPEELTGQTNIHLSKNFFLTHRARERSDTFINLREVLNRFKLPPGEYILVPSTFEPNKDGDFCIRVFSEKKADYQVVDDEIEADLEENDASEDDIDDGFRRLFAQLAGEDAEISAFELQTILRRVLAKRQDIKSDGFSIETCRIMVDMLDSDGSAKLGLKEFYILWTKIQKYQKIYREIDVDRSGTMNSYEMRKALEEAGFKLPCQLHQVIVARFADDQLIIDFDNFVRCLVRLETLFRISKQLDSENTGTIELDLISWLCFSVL

[7] = target: T3, Ubiquitin-conjugating enzyme E2 N (Homo sapiens, UniProt P61088); type: functional;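 note: Dose-response confirmation in a TR-FRET assay detecting UBC13-driven polyubiquitin chain formation, inhibition measured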
T3 sequence (P61088 whole entry): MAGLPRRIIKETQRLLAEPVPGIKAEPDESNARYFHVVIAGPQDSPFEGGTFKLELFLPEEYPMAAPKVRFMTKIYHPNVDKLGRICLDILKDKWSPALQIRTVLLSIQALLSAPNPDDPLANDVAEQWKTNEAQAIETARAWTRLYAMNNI

[8] = target: Heat shock protein HSP 90-alpha (Homo sapiens, UniProt P07900); type: functional, organism-based
Streptokinase A = target: T4, Streptokinase A (Streptococcus pyogenes serotype M1, UniProt P10520); experiment: viability-normalized secreted streptokinase activity reduction – plasminogen activation absorbance, OD405, dose response (AID 1914); type: functional, Streptococcus pyogenes M1 GAS;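 note: secreted streptokinase activity via plasminogen activation per viability signal from cell pellet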
T4 sequence (P10520 whole entry): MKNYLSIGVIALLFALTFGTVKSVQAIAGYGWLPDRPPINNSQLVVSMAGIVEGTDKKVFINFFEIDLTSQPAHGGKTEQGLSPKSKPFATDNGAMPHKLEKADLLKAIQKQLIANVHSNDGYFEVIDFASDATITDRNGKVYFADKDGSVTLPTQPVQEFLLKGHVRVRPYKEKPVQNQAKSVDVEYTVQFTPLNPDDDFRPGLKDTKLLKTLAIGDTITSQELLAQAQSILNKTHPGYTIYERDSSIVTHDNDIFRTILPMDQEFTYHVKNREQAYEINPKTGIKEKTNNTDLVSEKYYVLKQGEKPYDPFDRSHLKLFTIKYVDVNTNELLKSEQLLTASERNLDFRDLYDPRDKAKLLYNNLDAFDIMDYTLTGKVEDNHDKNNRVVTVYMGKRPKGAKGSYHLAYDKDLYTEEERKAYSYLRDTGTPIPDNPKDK

[9] = tested on: Streptococcus sp. 'group A'; experiment: Streptococcus pyogenes SK(-)GAS viability under kanamycin – luminescence, BacTiterGlo, confirmation, counter-screen for streptokinase expression inhibitor project, dose response (AID 1900); type: functional, organism-based
[10] = target: Disintegrin and metalloproteinase domain-containing protein 17 (Homo sapiens, UniProt P78536); experiment: inhibition of ADAM17 substrate cleavage – biochemical, quenched FRET substrate, counter-screen for ADAM10 exosite inhibitor project, dose response (AID 743253)
Chain of Disintegrin and metalloproteinase domain-containing protein 17 (P78536 whole entry, the tested form may be a part): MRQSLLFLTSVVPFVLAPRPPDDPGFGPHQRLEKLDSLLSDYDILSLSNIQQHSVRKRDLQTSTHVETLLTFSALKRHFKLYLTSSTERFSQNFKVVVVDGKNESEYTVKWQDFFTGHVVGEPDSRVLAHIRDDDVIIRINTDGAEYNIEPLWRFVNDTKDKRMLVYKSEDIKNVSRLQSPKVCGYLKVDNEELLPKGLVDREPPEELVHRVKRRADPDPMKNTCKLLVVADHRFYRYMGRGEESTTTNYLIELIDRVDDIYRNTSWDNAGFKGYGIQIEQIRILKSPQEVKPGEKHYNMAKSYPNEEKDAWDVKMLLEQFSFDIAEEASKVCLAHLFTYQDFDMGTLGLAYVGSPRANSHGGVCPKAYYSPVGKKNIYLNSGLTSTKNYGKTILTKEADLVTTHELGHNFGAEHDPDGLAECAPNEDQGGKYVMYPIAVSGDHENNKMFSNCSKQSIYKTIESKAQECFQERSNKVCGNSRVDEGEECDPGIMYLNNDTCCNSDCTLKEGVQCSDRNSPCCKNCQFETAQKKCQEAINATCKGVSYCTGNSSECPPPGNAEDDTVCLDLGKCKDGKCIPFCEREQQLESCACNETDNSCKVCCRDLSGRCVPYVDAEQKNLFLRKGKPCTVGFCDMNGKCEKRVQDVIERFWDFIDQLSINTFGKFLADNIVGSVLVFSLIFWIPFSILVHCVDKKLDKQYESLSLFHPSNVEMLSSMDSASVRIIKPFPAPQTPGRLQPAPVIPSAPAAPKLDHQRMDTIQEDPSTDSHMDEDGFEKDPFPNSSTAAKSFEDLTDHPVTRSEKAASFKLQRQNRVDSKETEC

[11] = HPDE-C7 pancreatic duct cell viability loss – fluorescence, HTS (AID 430); type: functional, cell-based; settings: Homo sapiens
[12] = viability loss of HPDE-C7K cells – cell-based, fluorescence, HTS, primary screen (AID 431); type: functional; settings: Homo sapiens
[13] = target: T5, Dual specificity protein phosphatase 6 (Rattus norvegicus, UniProt Q64346); experiment: inhibition of rat DUSP6 enzyme activity – biochemical, in vitro, primary screen (AID 425)
T5 sequence (Q64346 whole entry): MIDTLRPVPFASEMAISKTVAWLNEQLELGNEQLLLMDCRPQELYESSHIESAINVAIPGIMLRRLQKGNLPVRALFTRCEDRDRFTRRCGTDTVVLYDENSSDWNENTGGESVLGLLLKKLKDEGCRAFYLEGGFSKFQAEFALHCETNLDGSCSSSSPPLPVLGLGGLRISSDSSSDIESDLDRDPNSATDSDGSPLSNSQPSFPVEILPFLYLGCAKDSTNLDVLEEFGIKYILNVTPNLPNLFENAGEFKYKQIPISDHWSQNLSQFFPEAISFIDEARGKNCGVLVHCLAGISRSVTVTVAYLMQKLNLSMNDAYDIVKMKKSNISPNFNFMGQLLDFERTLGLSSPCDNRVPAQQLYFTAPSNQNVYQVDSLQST

Structure (SMILES): Nc1ccccc1SCC(=O)Nc1nc(-c2ccccc2)cs1
- IC50 [1]: > 100 µM (active)
- IC50 [2]: > 80 µM (inactive)

Structure (SMILES): CCN1CCN(C2=C(Cl)C(=O)N(c3ccc(Cl)nc3)C2=O)CC1
- IC50 [3]: > 100 µM (not active)
- IC50 (Bcl-2-related protein A1 [4]): 20.8 µM (active)
- IC50 (Bcl-2-related protein A1 [5]): 15 µM (active)

Structure (SMILES): CCCC(=O)C1=C(NCCc2c(C)[nH]c3ccc(C)cc23)CCCC1=O
- IC50 [1]: > 100 µM (active)

Structure (SMILES): C=C(C)COc1ccc(-c2n[nH]cc2Oc2cccc(OC)c2)c(O)c1
- EC50 (Streptococcus): 10 µM (active)
- IC50 [6]: 7.92 µM (not active)
- IC50 [7]: > 20 µM (inactive)
- AC50 [8]: 7.54 µM (active)
- EC50 (Streptokinase A): > 150 µM (not active)
- EC50 [9]: 8.18 µM (active)
- IC50 [10]: > 69.5 µM (inactive)
- EC50 [11]: 8.77 µM (active)
- EC50 [12]: 7.54 µM (active)

Structure (SMILES): C[C@H]1C[C@H]2[C@@H]3CCC4=CC(=O)C=C[C@]4(C)[C@@]3(Cl)[C@@H](O)C[C@]2(C)[C@@]1(O)C(=O)CO [BECLOMETHASONE]
- IC50 [13]: > 100 µM (not active)

Reference: ChEMBL document CHEMBL1201862, “PubChem BioAssay data set” (2004)
